{"source": "patent US6541240B1", "about": "“Bacterial cleavage of only organic C-N bonds of carbonaceous materials to reduce nitrogen content” (Petroleo Brasileiro S.A.-Petrobras, priority 1999, dated 2003)", "key": {"[1]": {"test_system": "Pseudomonas ayucida No PTA-806", "test": "Nitrogen Bioavailability Assay, substrate range and specificity tests", "type": "cell-based", "conditions": "for growth on test compound as nitrogen source: substrate range and specificity tests", "from_the_text": "The ability of bacteria to utilize organic nitrogen compounds for growth can be measured by the Nitrogen Bioavailability Assay (NBA). This assay is based on the fact that all life requires some nitrogen for growth and, therefore, a situation can be created whereby quantifying bacterial growth provides a measure of the utilization of any organic or inorganic compound as a source of nitrogen.\nThus, the Nitrogen Availability Assay utilizes defined mineral salts medium in growth tests in which organonitrogen model compounds such as quinoline, pyridine, carbazole, and porphyrin serve as sources of carbon and/or nitrogen. Growth tests are performed using six conditions:\n1. Test compound as sole source of carbon and nitrogen;\n2. […]\n3. Test compound as sole source of nitrogen (alternative carbon source, glucose/glycerol/succinate, is available);\n4. Test compound present as well as alternative sources of carbon and nitrogen;\n5. Only alternative nitrogen (ammonia) and carbon (glucose/glycerol/succinate) sources are available. The test compound is not present.\n6. No nitrogen compounds of any kind are present, but alternative carbon (glucose/glycerol/succinate) sources are available.\nThese six growth conditions constitute a bioassay for the ability of a culture to metabolize organonitrogen compounds. […]\nThe NBA test may be performed with any organonitrogen test compound which is ordinarily used at a concentration of from 3 mM to 20 mM.\nIn order to determine the range of organonitrogen compounds that could serve as sole sources of nitrogen for growth for the various pure cultures of the invention various organonitrogen compounds and control compounds are tested according to the Nitrogen Bioavailability Assay procedure. All compounds are highly pure, analytical grade compounds.\nThe various cultures are inoculated into test tubes or shake flasks containing media components appropriate for the six test conditions.\nThe cultures are then incubated aerobically for 2 to 4 days, at room temperature or at 30° C.\nThe growth of the cultures is monitored by measuring the turbidity/optical density of the cultures in the various test conditions, or by determining colony forming units.\nTest condition no 6 (nitrogen-free sample) is a negative control.\nTest conditions no 4 and 5 are positive controls since the samples are amended with both a carbon and nitrogen source and therefore should produce healthy microbial growth unless the test compound is toxic to the culture being tested. In this event only condition no 5 should result in healthy growth.\nSubstrate range and specificity tests were also carried out for the microorganism of the invention."}, "Aneurinibacillus sp.": {"test_system": "Aneurinibacillus sp.", "test": "Nitrogen Availability Assay, growth and substrate range tests of thermophilic culture", "conditions": "for minimum nitrogen concentration needed for growth: sole nitrogen source; for growth on test compound (substrate range): 3 mM test compound, 2 to 3 weeks incubation", "protocol": "The growth curve for this microorganism on pyridine as sole nitrogen source at 55° C. was determined by adding pyridine at the concentration of 3 mM to the Modified A medium in a 300 ml shake flask with a side arm klett tube to take klett/turbidity readings. Inoculums from log phase cultures were used in studying the growth kinetics of the culture. […] All experiments were in triplicate.\nThe concentration of nitrogen required by Aneurinibacillus sp. for growth was investigated using ammonium chloride and pyridine as sole nitrogen sources in modified medium A, at pH 7 and 55° C.\nSubstrate range and specificity tests were carried out for this culture. Experiments were performed during 2 to 3 weeks of incubations in sterile tubes with 3 mM concentration of the test compounds and an incubation volume of 5 ml."}, "Yokenella sp.": {"test_system": "Yokenella sp.", "test": "Utilization of carbazole as nitrogen or carbon source", "type": "cell-based", "protocol": "The Yokenella sp. culture is prepared according to the principles described hereinbefore. […] Experimental results lead to the conclusion that C—N bonds in carbazole are selectively cleaved by the Yokenella sp. culture isolated here although the specific metabolites produced have not yet been determined."}, "Pseudomonas stutzeri": {"test_system": "Pseudomonas stutzeri", "test": "Utilization of carbazole as nitrogen or carbon source", "type": "cell-based", "protocol": "This culture is prepared by the methods described hereinbefore. […] Experimental results lead to the conclusion that C—N bonds in carbazole are selectively cleaved by the Pseudomonas stutzer culture isolated here although the specific metabolites produced have not yet been determined."}, "[2]": {"test_system": "Derivatives of Pseudomonas ayucida No PTA-806", "test": "Utilization of organonitrogen compounds by derivative culture", "type": "cell-based", "from_the_text": "Similarly, derivatives of Pseudomonas ayucida No PTA-806 that are resistant to antiobiotics, either by the isolation of chromosomal mutations or by the introduction of suitable plasmids, retain the ability to selectively cleave C—N bonds in quinoline and other organonitrogen compounds."}, "[3]": {"test_system": "Pseudomonas nitroreducens"}, "[4]": {"test_system": "Pseudomonas ayucida No PTA-806", "test": "Petroleum (shale oil) biodenitrogenation test", "type": "cell-based", "conditions": "overnight (16 hour) incubation", "description": "One liter of culture OD600=1.67 is produced, which is harvested and the cell pellet is resuspended in 100 mls of ModA medium. The culture is divided into two 50 ml portions and 3 ml of shale oil (1.7 weight % nitrogen) is added to each. Then, the cultures are incubated under agitation at room temperature overnight (16 hours), the oil is separated and analyzed. The amount of quinoline present in oil samples is determined by GC, the area under the peak being corresponding to a retention time for quinoline.\nThen duplicate washed concentrated cell suspensions were incubated with shale oil samples for 16 hours at 30° C. The control sample consisted of shale oil added to sterile ModA medium which was incubated for 16 hours at 30° C. After incubation the petroleum samples were recovered and analyzed."}, "[5]": {"conditions": "modified medium A, pH 7, 55° C."}, "[6]": {"conditions": "pyridine 3 mM as sole nitrogen source, 55° C., Modified A medium"}}, "data": [{"smiles": "CCCCN1CCCC1", "note": "[1-butylpyrrolidine]", "values": [{"measurement": "growth in the presence of test compound when quinoline simultaneously present as alternate nitrogen source", "setting": "[1]", "result": "grew in the presence of all of the test compounds except"}]}, {"smiles": "Oc1cc(O)c2ccccc2n1", "note": "[2,4-quinolinediol]", "values": [{"measurement": "growth on test compound as nitrogen source", "setting": "[1]", "result": "grow"}]}, {"smiles": "C=C1N(C)c2ccccc2C1(C)C", "note": "[2-methylene-1,3,3-trimethyl indoline]", "values": [{"measurement": "growth in the presence of test compound when quinoline simultaneously present as alternate nitrogen source", "setting": "[1]", "result": "grew in the presence of all of the test compounds except"}]}, {"smiles": "O=C1CCc2ccccc2N1", "note": "[3,4-dihydro-(1H)-quinolinone]", "values": [{"measurement": "growth on test compound as nitrogen source", "setting": "[1]", "result": "grow"}]}, {"smiles": "O=c1ccc2cccc(O)c2o1", "note": "[8-hydroxycoumarin]", "values": [{"measurement": "utilization as carbon source for growth", "setting": "[1]", "result": "lack of utilization"}]}, {"smiles": "Oc1cccc2cccnc12", "note": "[8-hydroxyquinoline]", "values": [{"measurement": "growth on test compound as nitrogen source", "setting": "[1]", "result": "grow"}]}, {"smiles": "Cl.N", "note": "[ammonium chloride]", "values": [{"measurement": "minimum nitrogen concentration needed for growth", "setting": "Aneurinibacillus sp.; [5]", "result": 0.5, "unit": "mM"}]}, {"smiles": "c1ccc2c(c1)[nH]c1ccccc12", "note": "[carbazole]", "values": [{"measurement": "utilization as sole nitrogen source", "setting": "Yokenella sp.", "result": "able to utilize"}, {"measurement": "utilization as source of carbon", "setting": "Yokenella sp.", "result": "dose not utilize"}, {"measurement": "utilization as sole nitrogen source", "setting": "Pseudomonas stutzeri", "result": "able to utilize"}, {"measurement": "utilization as source of carbon", "setting": "Pseudomonas stutzeri", "result": "dose not utilize"}]}, {"smiles": "Nc1nc2nc[nH]c2c(=O)[nH]1", "note": "[guanine]", "values": [{"measurement": "growth on test compound (substrate range)", "setting": "Aneurinibacillus sp.", "result": "showed growth"}, {"measurement": "growth on test compound as nitrogen source", "setting": "[1]", "result": "grow"}]}, {"smiles": "c1ccc2cnccc2c1", "note": "[isoquinoline]", "values": [{"measurement": "utilization / metabolism by derivative culture", "setting": "[2]", "result": "increased substrate range for the metabolism"}]}, {"smiles": "NCCCC[C@H](N)C(=O)O", "note": "[lysine]", "values": [{"measurement": "growth on test compound (substrate range)", "setting": "Aneurinibacillus sp.", "result": "showed growth"}, {"measurement": "growth on test compound as nitrogen source", "setting": "[1]", "result": "grow"}]}, {"smiles": "O=C(O)c1cccnc1", "note": "[nicotinic acid]", "values": [{"measurement": "growth on test compound (substrate range)", "setting": "Aneurinibacillus sp.", "result": "showed growth"}, {"measurement": "growth on test compound as nitrogen source", "setting": "[1]", "result": "grow"}]}, {"smiles": "c1ccncc1", "note": "[pyridine]", "values": [{"measurement": "utilization as carbon source", "setting": "Aneurinibacillus sp.", "result": "no utilization"}, {"measurement": "growth on test compound (substrate range)", "setting": "Aneurinibacillus sp.", "result": "showed growth"}, {"measurement": "utilization as sole nitrogen source", "setting": "Aneurinibacillus sp.; 55° C.", "result": "able to utilize"}, {"measurement": "concentration inhibitory to the culture", "setting": "Aneurinibacillus sp.; [5]", "result": "higher than 10 mM"}, {"measurement": "exponential growth rate", "setting": "Aneurinibacillus sp.; [6]", "result": 0.13, "unit": "h"}, {"measurement": "generation time", "setting": "Aneurinibacillus sp.; [6]", "result": 7.55, "unit": "h"}, {"measurement": "minimum nitrogen concentration needed for growth", "setting": "Aneurinibacillus sp.; [5]", "result": 0.5, "unit": "mM"}]}, {"smiles": "c1ccc2ncncc2c1", "note": "[quinazoline]", "values": [{"measurement": "utilization / metabolism by derivative culture", "setting": "[2]", "result": "increased substrate range for the metabolism"}]}, {"smiles": "c1ccc2ncccc2c1", "note": "[quinoline]", "values": [{"measurement": "utilization as carbon source for growth", "setting": "[1]", "result": "lack of utilization"}, {"measurement": "cell doubling time", "setting": "[1]; defined salts medium, 30° C., quinoline as sole nitrogen source", "result": 4.25, "unit": "h"}, {"measurement": "growth on test compound as nitrogen source", "setting": "[1]", "result": "grow"}, {"measurement": "growth with compound as sole source of nitrogen", "setting": "[3]", "result": "growth with quinoline as sole source of nitrogen is indicated"}, {"measurement": "reduction of total nitrogen content of the medium", "setting": "[3]; quinoline 3.4 mM as sole source of nitrogen", "result": "up to 85%"}, {"measurement": "quinoline removed from shale oil", "setting": "[4]", "result": "about 68%"}]}, {"smiles": "c1ccc2nccnc2c1", "note": "[quinoxaline]", "values": [{"measurement": "growth on test compound as nitrogen source", "setting": "[1]", "result": "grow"}, {"measurement": "utilization / metabolism by derivative culture", "setting": "[2]", "result": "improved ability to utilize"}]}, {"smiles": "N[C@@H](Cc1c[nH]c2ccccc12)C(=O)O", "note": "[tryptophan]", "values": [{"measurement": "growth on test compound (substrate range)", "setting": "Aneurinibacillus sp.", "result": "showed growth"}, {"measurement": "growth on test compound as nitrogen source", "setting": "[1]", "result": "grow"}]}, {"smiles": "NC(N)=O", "note": "[urea]", "values": [{"measurement": "growth on test compound (substrate range)", "setting": "Aneurinibacillus sp.", "result": "showed growth"}, {"measurement": "growth on test compound as nitrogen source", "setting": "[1]", "result": "grow"}]}]}
